Laboratory results published in ChEMBL document CHEMBL5537185, “Discovery of the First-in-Class RORγ Covalent Inhibitors for Treatment of Castration-Resistant Prostate Cancer” (J Med Chem, 2024).
pIC50: −log10 of the molar value.

Assays:
[1] = target: T1, Nuclear receptor ROR-gamma (Homo sapiens, UniProt P51449); assay: Inhibition of Gal4-fused RORgamma LBD (unknown origin) expressed in HEK293T cells incubated for 48 hrs by luciferase based assay; format: cell-based
T1 sequence (P51449 whole entry): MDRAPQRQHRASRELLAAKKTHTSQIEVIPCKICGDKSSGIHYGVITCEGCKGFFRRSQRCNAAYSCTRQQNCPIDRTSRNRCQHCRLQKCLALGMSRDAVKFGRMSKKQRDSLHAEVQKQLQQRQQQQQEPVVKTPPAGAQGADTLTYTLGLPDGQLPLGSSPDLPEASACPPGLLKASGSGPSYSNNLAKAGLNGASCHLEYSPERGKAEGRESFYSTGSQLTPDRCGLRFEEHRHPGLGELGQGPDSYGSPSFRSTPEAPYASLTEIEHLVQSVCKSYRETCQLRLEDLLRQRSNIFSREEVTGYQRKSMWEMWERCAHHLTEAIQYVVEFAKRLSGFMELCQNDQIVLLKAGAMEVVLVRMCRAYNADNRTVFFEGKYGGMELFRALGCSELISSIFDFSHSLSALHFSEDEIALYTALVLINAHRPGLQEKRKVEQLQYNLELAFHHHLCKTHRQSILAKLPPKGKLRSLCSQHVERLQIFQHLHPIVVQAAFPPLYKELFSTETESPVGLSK

[2] = test system: LNCaP; assay: Antiproliferative activity against human LNCaP cells incubated for 4 days by CCK8 assay; settings: 96 h
[3] = test system: LNCaP C4-2B; assay: Antiproliferative activity against human LNCaP C4-2B cells incubated for 4 days by CCK8 assay; settings: 96 h
[4] = test system: CWR22R; assay: Antiproliferative activity against human 22Rv1 cells incubated for 4 days by CCK8 assay; settings: 22Rv1, 96 h

Row | SMILES | pIC50 [1] | other results
1 | C=CC(=O)Nc1ccccc1-c1ccc(NC(=O)Cc2ccc(S(=O)(=O)CC)cc2)cn1 | 5.21 | –
2 | C=CC(=O)Nc1ccccc1-c1ccc(NC(=O)Cc2ccccc2[N+](=O)[O-])cc1C | 5.52 | –
3 | CCC(=O)Nc1ccccc1-c1ccc(NC(=O)Cc2ccc(S(=O)(=O)CC)cc2)cc1C | 5.53 | –
4 | C=CC(=O)Nc1ccccc1-c1ccc(NC(=O)c2ccc(S(C)(=O)=O)cc2)cc1C | 5.24 | –
5 | C=CC(=O)Nc1ccccc1-c1ccc(NC(=O)Cc2ccc(S(=O)(=O)CC)cc2)cc1 | 5.39 | –
6 | C=CC(=O)Nc1ccccc1-c1ccc(NS(=O)(=O)Cc2ccc([N+](=O)[O-])cc2)cc1C | 5.18 | –
7 | C=CC(=O)Nc1ccccc1-c1ccc(NC(=O)c2cnc(C)nc2)cc1C | 5.59 | –
8 | C=CC(=O)Nc1ccccc1-c1ccc(NC(=O)c2ccc(OC)nc2)cc1C | 5.33 | –

Now those with a higher pIC50 [1], led by results:

Row | pIC50 [1] | SMILES | other results
9 | 5.91 | C=CC(=O)Nc1ccccc1-c1ccc(NC(=O)Cc2ccc(S(C)(=O)=O)cc2)cc1C | –
10 | 5.95 | C=C(C)C(=O)Nc1ccccc1-c1ccc(NC(=O)Cc2ccc(S(=O)(=O)CC)cc2)cc1C | –
11 | 5.66 | C=CC(=O)Nc1ccccc1-c1ccc(NC(=O)Cc2ccc(S(=O)(=O)CC)cc2)cc1C(F)(F)F | pIC50 [2]: 5.75; pIC50 [3]: 5.96; pIC50 [4]: 5.59
12 | 5.79 | C/C=C/C(=O)Nc1ccccc1-c1ccc(NC(=O)Cc2ccc(S(=O)(=O)CC)cc2)cc1C | –
